Assay results from ChEMBL document CHEMBL1201862, “PubChem BioAssay data set” (2004).
The source made the active and inactive calls.

Columns and labels:
[1] = target: T1, Type-1 angiotensin II receptor (Homo sapiens, UniProt P30556); assay: antagonism of angiotensin II type 1 receptor – cell-based, uHTS hits, selectivity assay for APJ receptor antagonist project, dose response (AID 463214); assay type: functional;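 note: antagonist potency against angiotensin II stimulated AT1 response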
T1 sequence (P30556 whole entry): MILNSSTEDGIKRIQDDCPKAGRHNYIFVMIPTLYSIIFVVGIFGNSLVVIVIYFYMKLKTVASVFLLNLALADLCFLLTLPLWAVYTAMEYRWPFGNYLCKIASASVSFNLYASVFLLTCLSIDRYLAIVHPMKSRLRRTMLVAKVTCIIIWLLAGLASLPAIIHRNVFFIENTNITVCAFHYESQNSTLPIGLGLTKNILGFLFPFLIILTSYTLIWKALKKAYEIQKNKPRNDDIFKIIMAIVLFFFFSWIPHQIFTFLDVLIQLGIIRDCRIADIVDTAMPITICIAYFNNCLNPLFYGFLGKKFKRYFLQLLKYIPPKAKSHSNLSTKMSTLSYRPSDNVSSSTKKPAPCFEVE

Beta-galactosidase = Beta-galactosidase (Escherichia coli, UniProt Q8VNN2); assay: PubChem AID 485352; assay type: functional
Chain of Beta-galactosidase (Q8VNN2 whole entry): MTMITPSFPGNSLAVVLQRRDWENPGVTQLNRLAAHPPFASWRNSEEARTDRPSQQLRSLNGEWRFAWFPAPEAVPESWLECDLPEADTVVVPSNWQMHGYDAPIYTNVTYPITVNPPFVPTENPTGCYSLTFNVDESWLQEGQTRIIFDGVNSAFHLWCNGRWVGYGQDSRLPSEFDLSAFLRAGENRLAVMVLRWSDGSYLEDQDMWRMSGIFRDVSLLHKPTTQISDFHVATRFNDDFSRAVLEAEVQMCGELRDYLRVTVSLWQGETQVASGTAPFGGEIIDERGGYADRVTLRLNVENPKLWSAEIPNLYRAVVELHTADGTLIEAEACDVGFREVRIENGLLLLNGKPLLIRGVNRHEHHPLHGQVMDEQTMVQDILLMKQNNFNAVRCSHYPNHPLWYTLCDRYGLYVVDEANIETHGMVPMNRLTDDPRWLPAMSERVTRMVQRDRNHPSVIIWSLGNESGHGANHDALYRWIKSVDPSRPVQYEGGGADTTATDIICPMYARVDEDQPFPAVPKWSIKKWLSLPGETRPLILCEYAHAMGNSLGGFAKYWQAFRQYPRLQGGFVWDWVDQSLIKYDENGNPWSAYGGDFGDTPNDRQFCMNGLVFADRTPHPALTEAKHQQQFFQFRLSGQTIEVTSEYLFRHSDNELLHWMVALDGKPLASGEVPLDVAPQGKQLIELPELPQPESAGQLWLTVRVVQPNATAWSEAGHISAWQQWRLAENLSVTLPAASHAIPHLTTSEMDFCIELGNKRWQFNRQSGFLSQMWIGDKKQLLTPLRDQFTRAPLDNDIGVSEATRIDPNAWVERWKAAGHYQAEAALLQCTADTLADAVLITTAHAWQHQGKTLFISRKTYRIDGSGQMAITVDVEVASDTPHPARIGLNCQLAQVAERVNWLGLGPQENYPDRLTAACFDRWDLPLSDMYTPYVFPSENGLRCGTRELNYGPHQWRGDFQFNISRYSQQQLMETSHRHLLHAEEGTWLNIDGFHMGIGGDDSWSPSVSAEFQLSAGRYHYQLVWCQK

Vero = assay: viability of Vero cells under compound – cytotoxicity control for flavivirus capping enzyme inhibitors (AID 588742); assay type: functional; details: Chlorocebus sabaeus
cells = assay type: functional
[2] = Vero E6 cell cytotoxicity, dose response, cytotoxicity control for non-replicating M. tuberculosis project, secondary assay (AID 492998); assay type: functional, VeroE6; details: Vero C1008
[3] = target: Glucose-6-phosphate 1-dehydrogenase (Homo sapiens, UniProt P11413); assay: inhibition of Homo sapiens G6PD, dose series – biochemical, fluorescence, selectivity assay for P. falciparum G6PD inhibitor project, dose response (AID 504792); assay type: functional
Chain of Glucose-6-phosphate 1-dehydrogenase (P11413 whole entry): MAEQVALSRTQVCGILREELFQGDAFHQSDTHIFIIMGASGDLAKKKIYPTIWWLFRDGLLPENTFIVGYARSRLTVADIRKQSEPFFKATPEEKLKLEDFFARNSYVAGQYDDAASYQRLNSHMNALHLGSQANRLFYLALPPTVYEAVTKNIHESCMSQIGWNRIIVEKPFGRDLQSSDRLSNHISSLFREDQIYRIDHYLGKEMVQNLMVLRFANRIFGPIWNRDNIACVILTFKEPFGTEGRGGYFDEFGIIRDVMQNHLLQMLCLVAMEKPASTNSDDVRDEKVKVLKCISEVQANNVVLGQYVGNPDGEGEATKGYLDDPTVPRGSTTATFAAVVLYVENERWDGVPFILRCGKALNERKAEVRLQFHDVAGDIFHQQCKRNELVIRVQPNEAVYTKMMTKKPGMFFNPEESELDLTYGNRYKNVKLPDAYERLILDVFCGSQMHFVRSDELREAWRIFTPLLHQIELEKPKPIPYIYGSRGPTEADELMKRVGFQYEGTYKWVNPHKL

[4] = target: T2, DNA repair and recombination protein RAD54-like (Homo sapiens, UniProt Q92698); assay: RAD54 Holliday junction migration blockers – biochemical, fluorescence, cherry-picked samples, dose series, confirmation (AID 651657); assay type: functional
T2 sequence (Q92698 whole entry): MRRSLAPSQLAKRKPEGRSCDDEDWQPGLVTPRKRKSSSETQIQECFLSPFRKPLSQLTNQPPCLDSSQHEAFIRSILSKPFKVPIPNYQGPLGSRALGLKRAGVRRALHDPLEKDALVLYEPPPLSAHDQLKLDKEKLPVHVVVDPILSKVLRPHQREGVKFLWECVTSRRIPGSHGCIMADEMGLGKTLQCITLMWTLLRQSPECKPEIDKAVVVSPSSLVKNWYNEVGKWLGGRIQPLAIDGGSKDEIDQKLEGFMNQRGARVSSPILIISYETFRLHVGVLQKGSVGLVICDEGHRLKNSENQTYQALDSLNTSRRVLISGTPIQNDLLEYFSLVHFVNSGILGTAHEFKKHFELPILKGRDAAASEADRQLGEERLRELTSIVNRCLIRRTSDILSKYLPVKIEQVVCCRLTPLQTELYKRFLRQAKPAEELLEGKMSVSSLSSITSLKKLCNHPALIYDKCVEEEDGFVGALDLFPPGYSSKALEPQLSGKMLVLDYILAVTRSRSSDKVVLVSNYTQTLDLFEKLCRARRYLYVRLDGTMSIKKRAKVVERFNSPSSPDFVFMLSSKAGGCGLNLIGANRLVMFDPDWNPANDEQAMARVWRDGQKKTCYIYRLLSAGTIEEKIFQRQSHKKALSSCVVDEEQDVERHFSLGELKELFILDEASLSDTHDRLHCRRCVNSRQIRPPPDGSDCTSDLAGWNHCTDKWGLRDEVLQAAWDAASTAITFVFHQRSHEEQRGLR

[5] = target: T3, Zinc finger protein mex-5 (Caenorhabditis elegans, UniProt Q9XUB2); assay: potency of MEX-5 RNA-binding blockers – biochemical, C. elegans, fluorescence polarization, dose response (AID 1960)
T3 sequence (Q9XUB2 whole entry): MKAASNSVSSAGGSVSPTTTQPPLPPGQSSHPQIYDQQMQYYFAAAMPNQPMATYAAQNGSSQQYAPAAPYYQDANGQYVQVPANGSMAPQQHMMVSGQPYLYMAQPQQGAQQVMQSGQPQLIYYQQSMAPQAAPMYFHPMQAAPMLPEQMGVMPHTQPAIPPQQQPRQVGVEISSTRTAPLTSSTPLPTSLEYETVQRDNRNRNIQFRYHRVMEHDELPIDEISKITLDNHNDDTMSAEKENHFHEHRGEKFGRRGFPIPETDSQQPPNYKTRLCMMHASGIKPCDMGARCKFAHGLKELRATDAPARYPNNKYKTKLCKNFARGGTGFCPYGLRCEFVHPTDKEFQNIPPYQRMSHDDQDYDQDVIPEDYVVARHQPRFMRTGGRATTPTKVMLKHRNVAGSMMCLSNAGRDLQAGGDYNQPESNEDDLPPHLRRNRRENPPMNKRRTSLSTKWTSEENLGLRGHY

Nonstructural protein 1 = Nonstructural protein 1 (Influenza A virus, UniProt Q194T2); assay type: functional, Influenza A virus (A/California/07/2009(H1N1))
Genome polyprotein = Genome polyprotein (dengue virus type 2, UniProt P29990); assay: flavivirus cap methylation enzyme inhibition – biochemical, confirmation dose response, primary screen (AID 588689); assay type: functional
Protein RecA = target: T4, Protein RecA (Mycobacterium tuberculosis, UniProt P9WHJ3); assay: Fluorescence Cell-Free Homogeneous Dose Retest to Identify Inhibitors of RecA-Intein Splicing Activity. [Related pubchem assays (depositor defined):AID2097, AID2223, AID489010, AID492950]; assay type: functional
T4 sequence (P9WHJ3 whole entry): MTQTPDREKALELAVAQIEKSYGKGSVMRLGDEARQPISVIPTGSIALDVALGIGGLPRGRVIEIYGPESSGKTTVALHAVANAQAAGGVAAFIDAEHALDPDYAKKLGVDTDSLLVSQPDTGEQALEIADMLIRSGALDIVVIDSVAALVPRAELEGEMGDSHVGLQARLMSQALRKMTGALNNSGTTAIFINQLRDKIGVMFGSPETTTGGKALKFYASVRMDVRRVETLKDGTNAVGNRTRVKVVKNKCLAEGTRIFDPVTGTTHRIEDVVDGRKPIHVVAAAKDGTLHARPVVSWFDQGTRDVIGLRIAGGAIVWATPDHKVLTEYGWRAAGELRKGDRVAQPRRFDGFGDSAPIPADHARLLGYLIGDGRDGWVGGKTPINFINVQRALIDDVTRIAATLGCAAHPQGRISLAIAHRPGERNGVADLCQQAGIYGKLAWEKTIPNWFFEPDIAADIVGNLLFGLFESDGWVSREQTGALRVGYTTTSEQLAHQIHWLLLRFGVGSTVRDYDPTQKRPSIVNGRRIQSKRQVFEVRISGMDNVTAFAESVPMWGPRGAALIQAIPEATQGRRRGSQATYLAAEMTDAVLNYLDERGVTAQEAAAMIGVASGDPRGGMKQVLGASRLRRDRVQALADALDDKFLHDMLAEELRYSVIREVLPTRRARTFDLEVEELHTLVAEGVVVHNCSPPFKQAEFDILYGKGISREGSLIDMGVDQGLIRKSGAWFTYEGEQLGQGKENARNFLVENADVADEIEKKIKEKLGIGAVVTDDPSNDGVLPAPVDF

[6] = target: T5, Replicative DNA helicase DnaB (Mycobacterium tuberculosis, UniProt P9WMR3); assay: DnaB intein splicing inhibitors, dose response, biochemical, cell-free fluorescence (AID 449749); assay type: functional
T5 sequence (P9WMR3 whole entry): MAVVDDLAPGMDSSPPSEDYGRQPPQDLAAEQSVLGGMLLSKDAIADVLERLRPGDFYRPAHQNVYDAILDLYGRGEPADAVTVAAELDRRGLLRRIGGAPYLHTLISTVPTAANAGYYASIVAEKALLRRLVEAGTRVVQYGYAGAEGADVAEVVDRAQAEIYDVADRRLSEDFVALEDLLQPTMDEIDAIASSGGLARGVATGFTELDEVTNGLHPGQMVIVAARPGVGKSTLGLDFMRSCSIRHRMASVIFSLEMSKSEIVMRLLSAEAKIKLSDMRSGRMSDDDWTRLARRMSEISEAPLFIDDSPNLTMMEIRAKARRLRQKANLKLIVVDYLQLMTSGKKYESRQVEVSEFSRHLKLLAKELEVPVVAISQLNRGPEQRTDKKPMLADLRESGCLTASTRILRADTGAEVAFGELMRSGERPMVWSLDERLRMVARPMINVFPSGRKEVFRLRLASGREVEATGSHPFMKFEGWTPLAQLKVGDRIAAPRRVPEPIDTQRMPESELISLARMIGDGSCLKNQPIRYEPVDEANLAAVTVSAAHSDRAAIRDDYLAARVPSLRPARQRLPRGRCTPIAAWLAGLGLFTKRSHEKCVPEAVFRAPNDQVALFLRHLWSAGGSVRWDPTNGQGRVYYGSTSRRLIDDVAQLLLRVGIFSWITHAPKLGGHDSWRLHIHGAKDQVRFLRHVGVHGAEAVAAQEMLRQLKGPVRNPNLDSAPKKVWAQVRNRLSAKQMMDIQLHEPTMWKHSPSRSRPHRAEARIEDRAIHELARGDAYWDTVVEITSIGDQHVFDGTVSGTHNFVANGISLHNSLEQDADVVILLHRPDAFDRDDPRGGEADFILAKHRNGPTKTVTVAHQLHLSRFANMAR

Large T antigen = Large T antigen (Simian virus 40, UniProt P03070); assay type: functional, Betapolyomavirus macacae;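 note: Confirmatory-stage PubChem screen for compounds that inhibit SV40 T antigen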
Chain of Large T antigen (P03070 whole entry, the tested form may be a part): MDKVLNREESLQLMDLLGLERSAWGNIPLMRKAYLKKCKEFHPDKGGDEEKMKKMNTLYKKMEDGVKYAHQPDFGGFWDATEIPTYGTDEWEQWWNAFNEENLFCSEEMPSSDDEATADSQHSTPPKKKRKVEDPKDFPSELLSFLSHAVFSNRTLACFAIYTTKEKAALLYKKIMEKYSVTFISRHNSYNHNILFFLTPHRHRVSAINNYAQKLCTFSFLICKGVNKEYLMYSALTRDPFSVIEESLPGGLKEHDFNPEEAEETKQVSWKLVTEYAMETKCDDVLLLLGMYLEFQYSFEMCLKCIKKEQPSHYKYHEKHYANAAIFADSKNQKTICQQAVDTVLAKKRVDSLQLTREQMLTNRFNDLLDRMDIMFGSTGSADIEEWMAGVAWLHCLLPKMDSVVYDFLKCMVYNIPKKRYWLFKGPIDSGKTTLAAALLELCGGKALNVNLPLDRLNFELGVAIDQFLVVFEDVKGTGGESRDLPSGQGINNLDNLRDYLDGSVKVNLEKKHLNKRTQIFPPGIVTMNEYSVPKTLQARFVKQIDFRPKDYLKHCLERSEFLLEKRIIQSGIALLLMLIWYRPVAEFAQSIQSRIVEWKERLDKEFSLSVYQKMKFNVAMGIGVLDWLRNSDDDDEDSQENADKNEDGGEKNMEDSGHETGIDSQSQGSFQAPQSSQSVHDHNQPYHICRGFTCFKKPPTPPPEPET

[7] = target: T6, RNA-binding protein pos-1 (Caenorhabditis elegans, UniProt G5EF15); assay: disruptors of C. elegans POS-1 RNA interaction – biochemical, fluorescence polarization, dose response (AID 1964);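 note: purified POS-1 fused to maltose binding protein made in E. coli; potency of compounds blocking POS-1 binding to fluorescent RNA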
T6 sequence (G5EF15 whole entry): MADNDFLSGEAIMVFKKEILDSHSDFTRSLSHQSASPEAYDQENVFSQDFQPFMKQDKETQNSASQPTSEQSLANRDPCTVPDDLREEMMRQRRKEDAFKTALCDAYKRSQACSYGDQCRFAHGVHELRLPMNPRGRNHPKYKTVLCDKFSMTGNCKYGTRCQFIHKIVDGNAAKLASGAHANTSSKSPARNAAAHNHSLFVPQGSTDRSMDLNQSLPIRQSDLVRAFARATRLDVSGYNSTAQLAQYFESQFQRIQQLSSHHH

Fatty acid synthase [8] = target: T7, Fatty acid synthase (Homo sapiens, UniProt P49327); assay: inhibition of human FAS-TE enzyme activity – biochemical, kinetic fluorescence intensity, dose response (AID 624326); assay type: functional;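 note: rate of fluorescence rise from hydrolysis of a fluorogenic O-methyl fluorescein ester substrate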
T7 sequence (P49327 whole entry): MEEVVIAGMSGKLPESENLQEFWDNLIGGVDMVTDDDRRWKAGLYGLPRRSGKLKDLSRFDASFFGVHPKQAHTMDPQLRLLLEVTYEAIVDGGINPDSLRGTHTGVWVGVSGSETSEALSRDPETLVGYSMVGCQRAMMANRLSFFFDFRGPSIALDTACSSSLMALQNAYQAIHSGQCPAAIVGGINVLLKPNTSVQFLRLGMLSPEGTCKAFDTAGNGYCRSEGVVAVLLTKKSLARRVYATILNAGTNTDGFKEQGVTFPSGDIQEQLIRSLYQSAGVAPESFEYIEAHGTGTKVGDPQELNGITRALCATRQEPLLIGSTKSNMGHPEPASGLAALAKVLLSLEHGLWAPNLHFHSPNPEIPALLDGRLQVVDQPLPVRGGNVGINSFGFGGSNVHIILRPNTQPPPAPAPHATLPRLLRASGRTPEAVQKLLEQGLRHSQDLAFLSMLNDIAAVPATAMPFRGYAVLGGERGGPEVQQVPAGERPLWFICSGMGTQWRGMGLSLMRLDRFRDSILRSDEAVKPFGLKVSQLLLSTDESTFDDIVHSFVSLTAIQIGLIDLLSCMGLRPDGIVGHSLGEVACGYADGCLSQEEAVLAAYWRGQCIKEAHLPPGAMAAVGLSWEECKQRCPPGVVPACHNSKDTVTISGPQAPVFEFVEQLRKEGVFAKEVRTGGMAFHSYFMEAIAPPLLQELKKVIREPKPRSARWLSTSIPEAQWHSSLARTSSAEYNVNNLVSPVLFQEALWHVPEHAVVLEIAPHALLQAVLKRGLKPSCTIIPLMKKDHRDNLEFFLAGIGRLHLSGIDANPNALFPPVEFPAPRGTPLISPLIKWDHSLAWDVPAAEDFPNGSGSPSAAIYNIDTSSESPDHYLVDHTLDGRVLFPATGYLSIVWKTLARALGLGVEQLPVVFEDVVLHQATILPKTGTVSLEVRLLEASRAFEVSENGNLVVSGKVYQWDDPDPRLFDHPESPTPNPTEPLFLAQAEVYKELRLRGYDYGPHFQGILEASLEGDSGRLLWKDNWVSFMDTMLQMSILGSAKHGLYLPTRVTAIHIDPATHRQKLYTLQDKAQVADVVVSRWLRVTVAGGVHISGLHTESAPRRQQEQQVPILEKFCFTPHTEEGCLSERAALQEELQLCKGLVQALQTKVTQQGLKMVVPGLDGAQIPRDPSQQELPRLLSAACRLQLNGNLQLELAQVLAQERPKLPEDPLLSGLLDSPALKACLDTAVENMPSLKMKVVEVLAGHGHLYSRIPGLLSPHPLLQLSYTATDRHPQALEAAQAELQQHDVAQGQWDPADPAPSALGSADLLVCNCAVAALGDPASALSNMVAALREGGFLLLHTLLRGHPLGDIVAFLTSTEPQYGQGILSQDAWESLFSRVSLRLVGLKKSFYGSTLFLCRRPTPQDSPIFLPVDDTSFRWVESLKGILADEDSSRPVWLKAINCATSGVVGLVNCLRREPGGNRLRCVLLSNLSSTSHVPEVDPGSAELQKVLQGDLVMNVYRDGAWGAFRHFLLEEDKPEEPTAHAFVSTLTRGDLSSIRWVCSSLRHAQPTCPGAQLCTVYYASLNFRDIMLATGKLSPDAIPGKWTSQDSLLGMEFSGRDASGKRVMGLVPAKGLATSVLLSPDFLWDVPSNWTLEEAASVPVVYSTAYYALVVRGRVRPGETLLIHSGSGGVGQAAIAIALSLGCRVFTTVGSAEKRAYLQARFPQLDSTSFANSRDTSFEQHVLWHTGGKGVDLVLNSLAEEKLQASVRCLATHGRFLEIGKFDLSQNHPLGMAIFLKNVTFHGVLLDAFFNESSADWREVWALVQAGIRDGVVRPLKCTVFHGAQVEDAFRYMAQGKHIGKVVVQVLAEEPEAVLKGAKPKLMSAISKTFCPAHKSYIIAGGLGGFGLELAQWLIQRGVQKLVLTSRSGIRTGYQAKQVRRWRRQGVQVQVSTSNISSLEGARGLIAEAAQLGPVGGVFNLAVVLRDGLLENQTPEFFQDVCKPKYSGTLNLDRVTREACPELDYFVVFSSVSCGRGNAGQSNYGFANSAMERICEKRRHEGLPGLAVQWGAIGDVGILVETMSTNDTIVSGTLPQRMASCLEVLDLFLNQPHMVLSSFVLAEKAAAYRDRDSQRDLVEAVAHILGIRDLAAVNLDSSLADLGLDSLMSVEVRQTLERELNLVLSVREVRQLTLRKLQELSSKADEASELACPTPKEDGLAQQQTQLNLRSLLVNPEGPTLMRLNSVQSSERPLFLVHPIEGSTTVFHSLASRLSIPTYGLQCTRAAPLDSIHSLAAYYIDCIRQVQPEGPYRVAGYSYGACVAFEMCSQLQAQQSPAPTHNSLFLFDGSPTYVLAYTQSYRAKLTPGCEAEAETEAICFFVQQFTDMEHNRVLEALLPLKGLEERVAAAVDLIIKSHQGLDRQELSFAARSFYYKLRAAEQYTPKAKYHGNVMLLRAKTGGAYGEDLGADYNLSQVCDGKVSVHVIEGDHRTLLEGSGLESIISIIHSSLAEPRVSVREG

Fatty acid synthase [9] = target: T7, Fatty acid synthase; assay: inhibition of human FAS-TE enzyme activity – biochemical, endpoint fluorescence intensity, uHTS hits, dose response (AID 624327); assay type: functional;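 note: fluorescence from hydrolysis of an O-methyl fluorescein acyl ester substrate by the enzyme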
[10] = target: Induced myeloid leukemia cell differentiation protein Mcl-1 (Homo sapiens, UniProt Q07820); assay type: functional
Chain of Induced myeloid leukemia cell differentiation protein Mcl-1 (Q07820 whole entry): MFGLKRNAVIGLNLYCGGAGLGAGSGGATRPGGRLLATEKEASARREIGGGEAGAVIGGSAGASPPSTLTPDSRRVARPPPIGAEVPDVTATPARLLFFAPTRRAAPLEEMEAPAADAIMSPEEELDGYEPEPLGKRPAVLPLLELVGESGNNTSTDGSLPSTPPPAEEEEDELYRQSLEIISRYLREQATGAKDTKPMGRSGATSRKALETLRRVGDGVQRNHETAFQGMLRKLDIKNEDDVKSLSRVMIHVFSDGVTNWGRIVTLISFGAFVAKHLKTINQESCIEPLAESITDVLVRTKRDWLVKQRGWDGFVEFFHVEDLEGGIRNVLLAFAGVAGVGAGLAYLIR

[11] = target: T8, Calpain-2 catalytic subunit (Sus scrofa, UniProt P43367); assay: m-calpain protease blockers, concentration series – biochemical, fluorogenic peptide substrate, dose response (AID 1420); assay type: functional
T8 sequence (P43367 whole entry): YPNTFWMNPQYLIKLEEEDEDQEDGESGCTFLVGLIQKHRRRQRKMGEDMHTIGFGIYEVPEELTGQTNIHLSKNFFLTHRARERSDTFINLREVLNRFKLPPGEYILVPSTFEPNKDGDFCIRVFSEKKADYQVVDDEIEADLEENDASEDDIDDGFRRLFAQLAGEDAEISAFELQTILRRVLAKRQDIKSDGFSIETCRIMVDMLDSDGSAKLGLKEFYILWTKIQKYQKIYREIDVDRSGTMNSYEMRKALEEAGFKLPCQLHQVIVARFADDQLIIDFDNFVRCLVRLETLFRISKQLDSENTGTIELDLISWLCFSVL

[12] = blockers of HIV-1 ZM109 envelope-driven cell-cell fusion – HeLa effector, CEM target cells, luciferase, cherry-pick, dose response (AID 652058); assay type: functional, cell-based;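 note: luciferase signal from HIV-1 Env mediated cell-cell fusion of effector and target cells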

For `Cc1ccc(C(=O)CNc2cc(C)ccc2C)cc1`, the IC50 [1] was 9.85 µM (active) and the EC50 (Beta-galactosidase) was > 40 µM (inactive).
For `C=CCNC1=NN=C(c2cc(C)n(CC=C)c2C)CS1`, the CC50 (Vero) was > 40 µM (active).
For `Cc1ccc(C(=O)Nc2nnc(-c3ccncc3)o2)cc1`, the IC50 (cells) was 8.2 µM (active) and the CC50 [2] was > 20 µM (active).
With `Cc1c(C(=O)N(Cc2ccccc2Cl)C2CCS(=O)(=O)C2)oc2ccccc12` (configuration not stated) the IC50 [3] was 40.3 µM (inactive).
With `CCOc1ccccc1N1CCN(C2=C(NS(=O)(=O)c3cccs3)C(=O)c3ccccc3C2=O)CC1` the CC50 (Vero) was > 40 µM (active).
For `COc1ccc(OCc2nnc3n2N=C(c2ccccc2)C(CC(=O)O)S3)cc1` (configuration not stated), the IC50 [3] was > 80 µM (inactive).
For `CCN(CC)CCCNC(=O)C1CCN(c2ncnc3c2sc2cccc(F)c23)CC1`, the AC50 [4] was 52 µM (active).
With `CCOCCCN=C(S)Nc1ccc2nc(N3CCCC3)cc(C)c2c1` the AC50 [4] was 100 µM (inactive).
With `CCN1CCc2c(sc(NC(=O)c3ccc(C(=O)c4ccccc4)cc3)c2C(N)=O)C1` the AC50 [4] was 36.6 µM (active).
In the case of `Cc1cc(C)nc(NNS(=O)(=O)c2ccc(F)c(Cl)c2)n1`, the IC50 [1] is reported as 23.9 µM (not active) and the EC50 (Beta-galactosidase) is reported as > 40 µM (inactive).
For `CCN(CC)C(=O)c1ccc2c(c1)C1C(Cl)C(Sc3ccccc3[N+](=O)[O-])CC1C(C(=O)O)N2` (configuration not stated), the EC50 [5] was 15.4 µM (inconclusive), the IC50 (Nonstructural protein 1) was 17.7 µM (active) and the IC50 (Genome polyprotein) was 59.1 µM (active). The EC50 (Protein RecA) was 17 µM (active), the AC50 [6] was 4.63 µM (active) and the IC50 (Large T antigen) was 35.4 µM (active). The EC50 [7] was > 300 µM (inconclusive).
With `Cc1nnc(Sc2cc(NCCO)c([N+](=O)[O-])c3nonc23)s1` the IC50 (Fatty acid synthase [8]) was 5.35 µM (active), the EC50 (Protein RecA) was 12.4 µM (active) and the IC50 [3] was > 80 µM (inactive). The AC50 [6] was 19.8 µM (inconclusive), the IC50 (Fatty acid synthase [9]) was 6.34 µM (active) and the IC50 [10] was 6.12 µM (active). The IC50 [11] was > 50 µM (not active).
In the case of `O=C(CCNc1cccc(Cl)c1)c1ccco1`, the IC50 (cells) is reported as 18 µM (active) and the CC50 [2] is reported as 18.8 µM (active).
In the case of `COc1cc(N)c2ncccc2c1Cl`, the IC50 [3] is reported as 69.4 µM (inactive).
In the case of `COc1cc([N+](=O)[O-])ccc1-c1ccc(/C=C2\C(=O)ON=C2c2ccccc2)o1`, the CC50 (Vero) is reported as 22.1 µM (active).
For `O=C(C[C@@H]1C[C@@H]2c3cc(NC(=O)C4CCOCC4)ccc3O[C@@H]2[C@H](CO)O1)NCCc1ccccc1`, the AC50 [12] was 37.3 µM (active).
